Paper PMC12627933, “A First-In-Human Study of the SUMOylation Inhibitor Subasumstat in Patients with Advanced/Metastatic Solid Tumors or Relapsed/Refractory Hematologic Malignancies” (Cancer Research Communications, 2025)
Where “and” joins values, the source holds several entries; their conditions need not be identical. Identical values can stand only once.

Test: Safety: treatment-emergent adverse events (NCI CTCAE v5.0; CRS per ASTCT), phase I/II study NCT03648372
Type: in vivo
Experimental: This study comprised two parts: a phase I dose escalation and a phase II dose expansion (Fig. 1). In the dose-escalation phase, patients were enrolled to receive subasumstat intravenously as a 1-hour (±10 minutes) infusion on days 1, 4, 8, and 11 of a 21-day cycle (biweekly schedule). […] Dose escalation was based on cohort with an adaptive design using Bayesian logistic regression modeling with overdose control. The starting dose of subasumstat was based on Good Laboratory Practice animal toxicity studies and supported by the estimation of a minimum anticipated biologically effective level. A detailed description of dose-limiting toxicities (DLT) is presented in the Supplementary Methods.
The phase II dose-expansion portion enrolled patients to receive the recommended phase II dose (RP2D) determined in phase I, with each cohort assessed separately using an adaptive two-stage design for a single proportion (see Supplementary Methods). For stage 1, each cohort was analyzed when a prespecified number of patients were enrolled and had the potential to have at least one posttreatment scan [i.e., after the first disease assessment, 2 months from cycle 1 day 1 (C1D1)]. If the prespecified minimal response rate was not achieved in the first stage for a given cohort, that cohort would be closed to enrollment. […] The final analysis of the primary endpoints for each cohort would take place when all ongoing patients had the opportunity to complete the 6-month disease assessment. Across both phases, patients received subasumstat for up to 1 year or until confirmed disease progression, unacceptable toxicity, if any withdrawal criterion from the study was met, or if discontinuation of subasumstat occurred.
The occurrence of DLTs was assessed during cycle 1 (DLTs are described in the Supplementary Methods). Treatment-emergent adverse events (TEAE) were graded according to NCI Common Terminology Criteria for Adverse Events version 5.0, except for cytokine release syndrome (CRS), which was graded according to the American Society for Transplantation and Cellular Therapy Consensus Grading for CRS ([20]).
It was anticipated that approximately 70 DLT-evaluable patients would be enrolled for dose escalation. The safety analysis set included all patients who received at least one dose, even if incomplete, of subasumstat. […] The overall response rate (ORR) was defined as the proportion of patients who achieved complete response and partial response (PR) during the study. The disease control rate (DCR) was defined as the proportion of patients who achieved […] as per RECIST v1.1 for solid tumors or Lugano classification for lymphomas. […] Progression-free survival was summarized descriptively using the Kaplan–Meier method.

SMILES: Cc1sc(C(=O)c2cncnc2N[C@@H]2C[C@H](COS(N)(=O)=O)[C@@H](O)C2)cc1[C@@H]1NCCc2ccc(Cl)cc21 [subasumstat]
- TEAE: Constipation (Total (N = 109)): 16 (14.7) n (%)
- TEAE: Decreased appetite (Total (N = 109)): 31 (28.4) n (%)
- TEAE: Dehydration (Total (N = 109)): 12 (11.0) n (%)
- TEAE: Diarrhea (Total (N = 109)): 39 (35.8) n (%)
- TEAE: Dyspnea (Total (N = 109)): 26 (23.9) n (%)
- TEAE: Fatigue (Total (N = 109)): 51 (46.8) n (%)
- TEAE: Headache (Total (N = 109)): 37 (33.9) n (%)
- TEAE: Hypophosphatemia (Total (N = 109)): 11 (10.1) n (%)
- TEAE: Insomnia (Total (N = 109)): 13 (11.9) n (%)
- TEAE: Nausea (Total (N = 109)): 45 (41.3) n (%)
- TEAE: Peripheral edema (Total (N = 109)): 17 (15.6) n (%)
- TEAE: Pleural effusion (Total (N = 109)): 12 (11.0) n (%)
- TEAE: Pyrexia (Total (N = 109)): 39 (35.8) n (%)
- TEAE: Stomatitis (Total (N = 109)): 11 (10.1) n (%)
- TEAE: Vomiting (Total (N = 109)): 29 (26.6) n (%)
- TEAEs (Total (N = 109)): 105 (96.3) n (%)
- TEAEs leading to discontinuation (Total (N = 109)): 12 (11.0) n (%)
- TEAEs leading to discontinuation related to subasumstat (Total (N = 109)): 4 (3.7) n (%)
- TEAEs related to subasumstat (Total (N = 109)): 87 (79.8) n (%)
- Grade ≥3 subasumstat-related TEAE: Anemia (Total (n = 109)): 4 (3.7) n (%)
- Grade ≥3 subasumstat-related TEAE: Aspartate aminotransferase increased (Total (n = 109)): 2 (1.8) n (%)
- Grade ≥3 subasumstat-related TEAE: Hypokalemia (Total (n = 109)): 2 (1.8) n (%)
- Grade ≥3 subasumstat-related TEAE: Lymphocyte count decreased (Total (n = 109)): 4 (3.7) n (%)
- Grade ≥3 subasumstat-related TEAE: Muscular weakness (Total (n = 109)): 2 (1.8) n (%)
- Grade ≥3 subasumstat-related TEAE: Neutropenia (Total (n = 109)): 4 (3.7) n (%)
- Grade ≥3 subasumstat-related TEAE: Platelet count increased (Total (n = 109)): 3 (2.8) n (%)
- Grade ≥3 subasumstat-related TEAE: Pneumonitis (Total (n = 109)): 2 (1.8) n (%)
- Grade ≥3 subasumstat-related TEAE: Thrombocytopenia (Total (n = 109)): 2 (1.8) n (%)
- Patients with at least one grade ≥3 subasumstat-related TEAE (Total (n = 109)): 29 (26.6) n (%)
- Subasumstat-related TEAE: Anemia (Total (n = 109)): 8 (7.3) n (%)
- Subasumstat-related TEAE: CRS (Total (n = 109)): 12 (11.0) n (%)
- Subasumstat-related TEAE: Chills (Total (n = 109)): 23 (21.1) n (%)
- Subasumstat-related TEAE: Decreased appetite (Total (n = 109)): 13 (11.9) n (%)
- Subasumstat-related TEAE: Diarrhea (Total (n = 109)): 21 (19.3) n (%)
- Subasumstat-related TEAE: Dyspnea (Total (n = 109)): 6 (5.5) n (%)
- Subasumstat-related TEAE: Fatigue (Total (n = 109)): 34 (31.2) n (%)
- Subasumstat-related TEAE: Headache (Total (n = 109)): 26 (23.9) n (%)
- Subasumstat-related TEAE: Hypokalemia (Total (n = 109)): 7 (6.4) n (%)
- Subasumstat-related TEAE: IRR (Total (n = 109)): 6 (5.5) n (%)
- Subasumstat-related TEAE: Myalgia (Total (n = 109)): 8 (7.3) n (%)
- Subasumstat-related TEAE: Nausea (Total (n = 109)): 33 (30.3) n (%)
- Subasumstat-related TEAE: Pyrexia (Total (n = 109)): 32 (29.4) n (%)
- Subasumstat-related TEAE: Vomiting (Total (n = 109)): 14 (12.8) n (%)
- Severity of CRS (all incidences, most nonserious): grade 1 or 2
- Discontinuation of subasumstat due to TEAEs (all patients (N = 109)): 11%
- Grade ≥3 TEAE abdominal pain (all patients (N = 109)): 5.5%
- Grade ≥3 TEAE anemia (all patients (N = 109)): 12.8% and 13%
- Grade ≥3 TEAE hypokalemia (all patients (N = 109)): 6.4%
- Grade ≥3 TEAEs (all patients (N = 109)): 60.6%
- On-study deaths (all patients (N = 109)): 11.0%
- On-study deaths related to subasumstat (all patients (N = 109)): none
- Subasumstat-related TEAE fatigue (all patients (N = 109)): 31.2%
- Subasumstat-related TEAE nausea (all patients (N = 109)): 30.3%
- Subasumstat-related TEAE pyrexia (all patients (N = 109)): 29.4%
- Subasumstat-related grade ≥3 TEAEs (all patients (N = 109)): 26.6%
- Subasumstat-related grade ≥3 anemia (all patients (N = 109)): 3.7%
- Subasumstat-related grade ≥3 decreased lymphocyte blood cell count (all patients (N = 109)): 3.7%
- Subasumstat-related grade ≥3 decreased platelet count (all patients (N = 109)): 2.8%
- Subasumstat-related grade ≥3 neutropenia (all patients (N = 109)): 3.7%
- TEAE diarrhea (all patients (N = 109)): 36% and 35.8%
- TEAE fatigue (all patients (N = 109)): 47% and 46.8%
- TEAE headache (all patients (N = 109)): 33.9%
- TEAE nausea (all patients (N = 109)): 41% and 41.3%
- TEAE pyrexia (all patients (N = 109)): 36% and 35.8%
- TEAEs related to subasumstat (all patients (N = 109)): 79.8%
- CRS (all patients (N = 109), 12 patients, all related to subasumstat): 11%
- Infusion-related reactions (IRR) (all patients (N = 109), seven patients): 6.4% and 6%
- Severity of IRR (all seven patients with IRR): grade 1 or 2
- Dose from which CRS was observed (in vivo): ≥ 60 mg
- IRR deemed related to subasumstat (of seven patients with IRR): six
